Measured values: publication PMC7589136, “The Human Digestive Tract Is Capable of Degrading Gluten from Birth” (International Journal of Molecular Sciences, 2020)
Like-named read-outs stand apart in the source and are kept apart here. Ends that are not written are not given here.

Tests used:
[1] = Peptidase activity of desalted fecal protein extracts against 33-mer, 19-mer and 13-mer gliadin peptides (HPLC); type: in vitro ADME, human; settings: for Degradation capacity of new-born fecal samples against peptide / Degradation of peptide by feces samples / Degradation of peptide by fecal protein extract / Degradation of peptide by meconium protein extract: 60 μM peptide, 37 °C; for Degradation capacity of new-born fecal samples against peptide: in some cases intermediate peptides observed; for Degradation of peptide by feces samples: up to 12 month-olds; for Degradation of peptide by fecal protein extract / Degradation of peptide by meconium protein extract: 0.8 mg/mL extract; for Degradation of peptide by fecal protein extract: HPLC UV 215 nm; for Degradation of peptide by meconium protein extract: reverse-phase HPLC, UV 215 nm
Experimental: Step 1: Sample preparation: Fecal samples were homogenized by mechanical stirring (90 min) in 10 mM Tris-HCl, pH 7.5 (1:5 w/v) and centrifuged (3100× g, 30 min). The supernatant was re-centrifuged at 30,000× g for 20 min.
Step 2: Ammonium sulphate fractionation: Each supernatant obtained from step 1 was precipitated with ammonium sulphate. The 80% ammonium sulphate precipitate (containing glutenase activity) was collected by centrifugation at 30,000× g, 20 min. The pellet was dissolved in 10 mM Tris-HCl (pH 7.5) and ammonium sulphate was eliminated by passing through a Sephadex G-25 (PD-10) column (GE Healthcare Live Sources, San Diego, CA USA) equilibrated with Tris-ClH (pH 5) in accordance with manufacturer’s indications.
Peptides used in this paper were: 33-mer ([…]), 19-mer (LGQQQPFPPQQPYPQPQPF), and 13-mer (LGQQQPFPPQQPY) synthetized by Bionova Científica, S.L. (Madrid, Spain) with purification grade around 96%.
We assayed 33-mer, 19-mer, and 13-mer hydrolysis as described previously, with modifications. Briefly, reaction mixtures containing 0.8 mg/mL of desalted protein extract (see step 2.2), 33-, 19-, or 13-mer peptide (60 μM) were incubated at 37 °C for 60 min and then stopped by boiling at 100 °C. 10-µL of each filtered aliquot was subjected to reverse-phase HPLC. The elution phases consisted of (A) MilliQ H2O containing 0.1% trifluoroacetic acid (TFA) (v/v) and (B) acetonitrile and 0.1% TFA (v/v). The eluate was monitored by measuring UV absorbance at 215 nm. Negative controls included runs with proteins denatured by boiling for 15 min, or 33-, 19-, and 13-mer peptides assayed without protein extract.

[2] = test system: elastase 3B, elastase 2A, and carboxypeptidase A1; settings: cited from earlier work
[3] = elastase 3B, elastase 2A, and carboxypeptidase A1 from human feces

Degradation capacity of new-born fecal samples against peptide ([1]; 60 min, HPLC) | Degradation of peptide by feces samples ([1]; 60 min, HPLC) | Degradation of peptide by fecal protein extract ([1]; volunteers >300 months old (the only group that did not degrade it completely), 60 min) | Hydrolytic activity of meconium samples against peptide ([1]; all 21 meconium samples, HPLC) | Degradation of peptide by meconium protein extract ([1]; desalted meconium protein extract of newborn volunteer 15, 60 min, intermediate peptides generated) | Degradation of peptide by meconium protein extract ([1]; desalted meconium protein extracts of newborn volunteers 3 and 9, 60 min) | Degradation of peptide by fecal protein extract ([1]; volunteers 0–2 months old, 60 min) | Degradation of peptide by fecal protein extract ([1]; volunteers 2–6 months old, 60 min) | Degradation of peptide by fecal protein extract ([1]; volunteers over 48 months old, 1 h) | Sequence | Hydrolysis of peptide by gastrointestinal proteases [2, 3] | Hydrolysis of peptide by gastrointestinal proteases [2]
total degradation | able to degrade | not able to complete degrade |  |  |  |  |  |  | LGQQQPFPPQQPY [13-mer] | fully | 
 |  |  |  |  |  |  |  |  | LGQQQPFPPQQPYPQPQPF [19-mer] |  | fully
total degradation | able to degrade |  | showed hydrolytic activity | only partially degraded | completely degrade | completely degrade | completely degrade | unable to completely degrade | LQLQPFPQPQLPYPQPQLPYPQPQLPYPQPQPF [33-mer] | partially | 
